{
  "source": "patent US9597531B2",
  "about": "“Selective, lipophilic, and long-acting beta agonist monotherapeutic formulations and methods for the cosmetic treatment of adiposity and contour bulging” (NEOTHETICS, INC., priority 2010, dated 2017)",
  "key": {"[1]": {"conditions": "compared with albuterol; cited from earlier work"}, "[2]": {"conditions": "minipig, in vivo"}, "[3]": {"test": "Pharmacokinetics and bioavailability in minipigs after SC administration (Example 8)", "assay_type": "in vivo, Gottingen minipig", "conditions": "for AUC(0-inf) / Cmax / half-life / Tmax: Gottingen, minipig, plasma, 4 ug/kg", "method": "Plasma concentrations of salmeterol were monitored in a male and a female Gottingen minipig after SC administration of salmeterol xinafoate. SC dose of 4 μg/kg salmeterol xinafoate was administered as a single bolus dose. […] Samples were processed to plasma by centrifugation under refrigeration and stored frozen at approximately −70° C. (±15° C.) until analysis.\nOther calculations were done using Microsoft Excel® XP. The bioanalytical and pharmacokinetic data were reported to 3 significant figures."}, "[4]": {"test_system": "subcutaneous fat thickness", "test": "Subcutaneous fat thickness by 2D-ultrasound (Example 7)"}, "inguinal fat pad": {"test_system": "inguinal fat pad", "test": "Inguinal fat pad weight after SC injection into the rat inguinal fat pad (Example 6)", "assay_type": "in vivo, Sprague-Dawley rats", "quoted_text": "Mature male Sprague-Dawley rats weighing approximately 500 g were lightly anesthetized with 4% isoflurane. Test article injections (drug vehicle, different doses of salmeterol xinafoate) were injected SC into the right inguinal fat pad in a volume of 0.4 mL. An equal volume of drug vehicle was injected into the left inguinal fat pad. […] Approximately 24 hours after the last injection, rats were anesthetized, sacrificed and the right and left fat pads harvested and weighed. The change in fat pad weight (Right vs. Left) was calculated and expressed as a percent change in inguinal fat pad weight (% change IFP=(Right side−Left side)×100/Left side)."}, "[5]": {"conditions": "SC single site 4 μg/kg, female 2-0623"}, "[6]": {"conditions": "SC single site 4 μg/kg, male 1-0771"}},
  "note": "Like-named read-outs stand apart in the source and are kept apart here.",
  "data": [
    {"smiles": "OCc1cc(C(O)CNCCCCCCOCCCCc2ccccc2)ccc1O", "note": "(racemic) [Salmeterol, ±2-(hydroxymethyl)-4-[1-hydroxy-2-[6-(4-phenylbutoxy)hexylamino]ethyl]-phenol]", "values": [
      {"measurement": "lipophilicity relative to albuterol", "setting": "[1]", "value": "at least 10,000 times"},
      {"measurement": "salmeterol partition ratio (average plasma Cmax subcutaneous / average plasma Cmax intravenous)", "setting": "[2]; both, Gottingen", "value": 0.1},
      {"measurement": "Cmax", "setting": "[2]; 0.004 ug/kg", "value": 0, "unit": "ng/mL"},
      {"measurement": "plasma concentrations observed", "setting": "[2]; sc", "value": "Scarce or no plasma concentrations"},
      {"measurement": "AUC(0-inf)", "setting": "[3]; [5]", "value": 1.67, "unit": "ng·h/mL"},
      {"measurement": "Cmax", "setting": "[3]; [5]", "value": 0.433, "unit": "ng/mL"},
      {"measurement": "half-life", "setting": "[3]; [5]", "value": 494, "unit": "min"},
      {"measurement": "Tmax", "setting": "[3]; SC single site 4 μg/kg, female 2-0623, read-out: Tmax", "value": 30, "unit": "min"},
      {"measurement": "AUC(0-inf)", "setting": "[3]; [6]", "value": 2.26, "unit": "ng·h/mL"},
      {"measurement": "Cmax", "setting": "[3]; [6]", "value": 0.564, "unit": "ng/mL"},
      {"measurement": "half-life", "setting": "[3]; [6]", "value": 684, "unit": "min"},
      {"measurement": "Tmax", "setting": "[3]; SC single site 4 μg/kg, male 1-0771, read-out: Tmax", "value": 20, "unit": "min"},
      {"measurement": "tlast", "setting": "[3]; [5]", "value": 24.0, "unit": "h"},
      {"measurement": "tlast", "setting": "[3]; [6]", "value": 24.0, "unit": "h"}
    ]},
    {"smiles": "OCc1cc(C(O)CNCCCCCCOCCCCc2ccccc2)ccc1O", "note": "(stereo not shown) [salmeterol xinafoate]", "values": [
      {"measurement": "evaluation of the injection sites", "setting": "[4]; SC twice per week, 0.05, 0.5 or 5 μg per site", "value": "did not reveal any adverse reactions"},
      {"measurement": "fat thickness (2D-ultrasound)", "setting": "[4]; SC twice per week, FIG. 2", "value": "dose-related changes in fat thickness"},
      {"measurement": "increase of fat thickness", "setting": "[4]; highest dose (5 ng)", "value": "approximately 3%"},
      {"measurement": "reduction of total fat thickness", "setting": "[4]; lowest doses (0.05 and 0.5 ng)", "value": "7-9%"},
      {"measurement": "change in inguinal fat pad weight", "setting": "inguinal fat pad; 0.1, 1, 10 or 100 μg SC into fat pad on 3 consecutive days, right vs left (vehicle) pad, FIG. 1", "value": "dose-related reduction in fat pad weight"},
      {"measurement": "staining and histological evaluation of the tissue", "setting": "inguinal fat pad; inguinal fat pad after SC injection, data not shown", "value": "reduction in fat cell number and size"},
      {"measurement": "absorption following SC administration", "setting": "[3]; SC 4 μg/kg", "value": "rapidly absorbed"},
      {"measurement": "Tmax", "setting": "[3]; both sexes, SC 4 μg/kg, male and female, read-out: Tmax values", "value": "20 to 30", "unit": "min"}
    ]}
  ]
}
